Measurements from patent US8759073B2, “Method for effectively controlling harmful organisms in large-scale culture of microalgae” (ENN Science & Technology Development Co., Ltd., priority 2009, dated 2014).

Experiments:
Oxyrrhis = assay: Control of Oxyrrhis contamination in microalgae culture, microscope examination; assay type: cell-based, Oxyrrhis sp
From the text: If the contaminated alga liquid is identified as acid tolerant contamination, pH value is raised up with alkalis in the culture system of the microalgae and maintained for a period of time. The pH value cannot be higher than the maximal tolerable pH of the microalgae. […] In an embodiment, said alkali can be ammonia. In an embodiment, said alkali can be NaOH. In an embodiment, said alkali can be 1M NaOH. Depending on different pH requirements and different culture systems, alkalis with different concentrations can be used according to the agitation condition, as long as the transient pH is not too high to be harmful to microalgae, and dilution of the cell concentration in the culture system (caused by adding too much alkali solution) should also be avoided. […] In an embodiment, the pH of the culture system is adjusted to 11.5-12.0 with 1M NaOH or 1M ammonia. In an embodiment, the pH of the culture system is adjusted to 11.0-11.8 or 8.0-11.0 with 1M NaOH or 1M ammonia. In an embodiment, the pH of the culture system is adjusted to 8.0-11.0, 11.5-12.0 or 11.0-11.8 and maintained for 3 hours.
Microscope examination is always used as one of the bases for determining the growth status in the process of microalgae culture.
(§1) Chlorella sp. (purchased from FACHB collection, Wuhan Aquatic Research Institure, Chinses Academy of Sciences) was cultured in a 320 L bubbling reactor (manufactured by Longfang Jiangchuan plexiglass Co. Ltd., φ300 mm×2 m) out-of-doors under a sunlight film. The culture condition included: a temperature of about 25 °C, a humidity of 60%-80%, and an illumination of 8000-20000 lux. Modified SM (see Table 2) (pH 7.0-9.0 for the normal culture) was used. […] Then, CO2 was aerated to adjust pH to be 7.0-8.0.
(§2) Chlorella sp. (obtained from Jinan University) was cultured in a 320 L bubbling reactor (manufactured by Longfang Jiangchuan plexiglass Co. Ltd., φ300 mm×2 m) out-of-doors under a sunlight film (with a temperature of about 25 °C, a humidity of 60%-80%, and an illumination of 8000-20000 lux). Modified SM medium (see Table 2) was used. When Amoeba, Oxyrrhis and ciliate contaminations were observed is with an oil immersion lens (Nikon fluorescent invert microscope Ti series), pH was adjusted to 11.0-11.8 with 1M NaOH. […] Then, CO2 was aerated continuously to saturation (pH 5.6). […] Then air was sufficiently aerated.
(§3) Chlorococcum sp. (obtained from Qingdao Marine Institute) was cultured in a 60 L glass plate reactor (manufactured by Longfang Jiangchuan plexiglass Co. Ltd., OP=10 cm) under a sunlight film (with a temperature of about 25 °C, a humidity of 60%-80%, and an illumination of 8000-20000 lux) (pH 8.0-9.0 for the normal culture). Modified BG11 medium (see Table 3) was used. […] Then CO2 was aerated and pH was adjusted to 7.0-8.0.
(§4) Chlorococcum sp. (obtained from Qingdao Marine Institute) was cultured in a 60 L glass plate reactor (manufactured by Longfang Jiangchuan plexiglass Co. Ltd., OP=10 cm) under a sunlight film (with a temperature of about 25 °C, a humidity of 60%-80%, and an illumination of 8000-20000 lux) (pH 8.0-9.0 for the normal culture). Modified BG11 medium (see Table 3) was used. […] One hour later, CO2 was aerated to saturation (about pH 5.6) for 24 hour continuously. […] Then air was sufficiently aerated.

Chlorella sp. = assay: Growth of cultured algae after treatment, 320 L bubbling reactor; conditions: for algae growth compared with adjusting pH with NaOH: pH adjusted with 1M ammonia
Experimental: (§5) pH of the normally cultured microalgae is adjusted into various ranges. The growth rate of the microalgae is measured and their appearance is observed under a microscope.
as §1
Chlorella sp. (purchased from FACHB collection, Wuhan Aquatic Research Institure, Chinses Academy of Sciences) was cultured in a 320 L bubbling reactor (manufactured by Longfang Jiangchuan plexiglass Co. Ltd., φ300 mm×2 m) out-of-doors under a sunlight film. Modified SM medium (see Table 2) (pH 7.0-9.0 for the normal culture) was used. The culture condition included: a temperature of about 25 °C, a humidity of 60%-80%, and an illumination of 8000-20000 lux. […] Then air was sufficiently aerated, and pH was raised to 7.0-7.5 after 4 hours.
as §2
as §1, with “film. Modified SM medium (see Table 2) (pH 7.0-9.0 for the normal culture) was used.” for “film.”, “lux.” for “lux. Modified SM (see Table 2) (pH 7.0-9.0 for the normal culture) was used.”, “Then” for “Then,”, “aerated and pH was adjusted” for “aerated”, “to” for “to adjust pH to be”
Chlorella sp. (obtained from Jinan University) was cultured in a 320 L bubbling reactor (manufactured by Longfang Jiangchuan plexiglass Co. Ltd., φ300 mm×2 m) out-of-doors under a sunlight film (with a temperature of about 25 °C, a humidity of 60%-80%, and an illumination of 8000-20000 lux). Modified SM medium (see Table 2) was used. […] Then CO2 was aerated to saturation (pH 5.6) for 24 hours continuously. […] Then air was sufficiently aerated.

Chlorococcum sp. = assay: Growth of cultured algae after treatment, 60 L glass plate reactor; conditions: for algae growth compared with adjusting pH with NaOH: pH adjusted with 1M ammonia
Experimental: as §5
Chlorococcum sp. (obtained from Qingdao Marine Institute) was cultured (pH 8.0-9.0 for the normal culture) in a 60 L glass plate reactor (manufactured by Longfang Jiangchuan plexiglass Co. Ltd., OP=10 cm) under a sunlight film (with a temperature of about 25 °C, a humidity of 60%-80%, and an illumination of 8000-20000 lux). Modified BG11 medium (see Table 3) was used. […] CO2 was aerated continuously. […] Then air was sufficiently aerated, and pH was raised to 7.0-8.0 in 4 hours.
as §3, §4
as §3, with “air” for “CO2”, “sufficiently aerated.” for “aerated and pH was adjusted to 7.0-8.0.”
as §3
Chlorococcum sp. (obtained from Qingdao Marine Institute) was cultured in a 60 L glass plate reactor (manufactured by Longfang Jiangchuan plexiglass Co. Ltd., OP=10 cm) under a sunlight film (with a temperature of about 25 °C, a humidity of 60%-80%, and an illumination of 8000-20000 lux) (pH 8.0-9.0 for the normal culture). Modified BG11 medium (see Table 3) was used.

Spirulina maxima = assay: Growth of cultured algae after treatment, 500 L raceway pond; assay type: cell-based; conditions: Example 15; pH adjusted with 1M ammonia
Experimental: Modified SM (see Table 2) was used. […] Then air was sufficiently aerated. Twenty-four hours later, the algae could resume to grow.
Modified SM (see Table 2) was used. […] One hour later, CO2 was aerated to saturation for 23 hour continuously (about pH 5.8). […] Then air was sufficiently aerated. Twenty-four hours later, the algae could resume to grow.

Compound	Oxyrrhis, result of microscope examination (Oxyrrhis; Example 2, Chlorella sp. culture, pH 11.0-11.8 with 1M NaOH, three hours)	Oxyrrhis, result of microscope examination (Oxyrrhis; Example 4, Chlorella sp. culture, mixed contamination, pH 11.0-11.8 with 1M NaOH, one hour)	Oxyrrhis, result of microscope examination (Oxyrrhis; Example 6, Chlorococcum sp. culture, pH 11.5-12.0 with 1M NaOH, three hours)	Oxyrrhis, result of microscope examination (Oxyrrhis; Example 7, Chlorococcum sp. culture, mixed contamination, pH 11.5-12.0 with 1M NaOH)	Oxyrrhis, result of microscope examination (Oxyrrhis; Example 11, Chlorella sp. culture, pH 8.0 with 1M ammonia, three hours)	Oxyrrhis, result of microscope examination (Oxyrrhis; Example 12, Chlorella sp. culture, mixed contamination, pH 9.0 with 1M ammonia, one hour)	Oxyrrhis, result of microscope examination (Oxyrrhis; Example 13, Chlorococcum sp. culture, pH 10.0 with 1M ammonia, three hours)	Oxyrrhis, result of microscope examination (Oxyrrhis; Example 14, Chlorococcum sp. culture, mixed contamination, pH 9.0 with 1M ammonia)	time until algae started to grow (Chlorella sp.; Example 11, pH 8.0 with 1M ammonia 3 h, then CO2 to pH 7.0-8.0) [h]	algae growth compared with adjusting pH with NaOH (Chlorella sp.; Example 11)	algae growth compared with adjusting pH with NaOH (Chlorella sp.; Example 12)	time until algae started to grow (Chlorococcum sp.; Example 13, pH 10.0 with 1M ammonia 3 h, then CO2 to pH 7.0-8.0) [h]	algae growth compared with adjusting pH with NaOH (Chlorococcum sp.; Example 13)	algae growth compared with adjusting pH with NaOH (Chlorococcum sp.; Example 14)	algae growth compared with adjusting pH with NaOH (Spirulina maxima)
[Na+].[OH-] [1M NaOH, NaOH]	almost no Oxyrrhis	essentially inactivated	almost no Oxyrrhis	essentially inactivated	–	–	–	–	–	–	–	–	–	–	–
N [1M ammonia, ammonia]	–	–	–	–	almost no Oxyrrhis was observed	lost its activity essentially	almost no Oxyrrhis	inactivated essentially	18	clearly grew better	clearly grew better	18	clearly grew better	clearly grew better	clearly grew better
